The values that follow come from patent US12214015B2, “Use of c-type natriuretic peptide variants to treat osteoarthritis” (priority 2015, dated 2025).

Broadly, the AUC(0-t) is exposure summed from dosing to a finite time, without extrapolation to infinity. A low value points to less exposure. By Cmax is commonly meant the maximum level reached in the sampled fluid or tissue. A word on the Tmax: it is the time at which the peak concentration occurs. What is called clearance is the volume of plasma or blood freed of the substance per unit of time. A word on the half-life: it is the time needed for the level to fall by half in the phase considered. Lower therefore signals fast loss.

Data set [1] addresses T1, NPR-B (Homo sapiens, UniProt P20594).
T1 sequence (P20594 23-1047): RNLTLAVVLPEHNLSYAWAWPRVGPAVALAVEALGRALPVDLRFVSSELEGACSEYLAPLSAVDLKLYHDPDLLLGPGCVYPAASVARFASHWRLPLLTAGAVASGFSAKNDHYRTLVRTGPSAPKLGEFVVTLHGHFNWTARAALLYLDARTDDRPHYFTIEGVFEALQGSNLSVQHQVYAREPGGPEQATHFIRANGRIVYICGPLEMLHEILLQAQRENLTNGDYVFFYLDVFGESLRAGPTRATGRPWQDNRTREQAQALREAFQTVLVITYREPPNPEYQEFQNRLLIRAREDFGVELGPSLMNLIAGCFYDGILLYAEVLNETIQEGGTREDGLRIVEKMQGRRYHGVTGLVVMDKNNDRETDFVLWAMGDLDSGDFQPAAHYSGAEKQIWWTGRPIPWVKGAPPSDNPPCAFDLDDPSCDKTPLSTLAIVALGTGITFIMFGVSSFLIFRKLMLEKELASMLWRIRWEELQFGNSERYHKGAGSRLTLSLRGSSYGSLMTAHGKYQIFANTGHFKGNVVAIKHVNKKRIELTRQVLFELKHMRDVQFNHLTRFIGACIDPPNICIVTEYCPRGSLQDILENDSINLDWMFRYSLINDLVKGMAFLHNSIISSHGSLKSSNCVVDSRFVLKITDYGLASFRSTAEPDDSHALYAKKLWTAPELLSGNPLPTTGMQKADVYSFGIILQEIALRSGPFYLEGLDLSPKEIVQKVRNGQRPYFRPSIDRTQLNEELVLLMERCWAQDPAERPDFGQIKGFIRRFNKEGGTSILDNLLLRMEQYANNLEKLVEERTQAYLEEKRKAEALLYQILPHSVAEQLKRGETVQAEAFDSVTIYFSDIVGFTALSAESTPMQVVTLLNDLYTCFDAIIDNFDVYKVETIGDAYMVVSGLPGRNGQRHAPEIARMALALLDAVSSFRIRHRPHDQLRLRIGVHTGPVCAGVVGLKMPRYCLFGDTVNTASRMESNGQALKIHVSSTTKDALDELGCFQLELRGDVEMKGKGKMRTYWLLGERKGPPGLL
As to the kind of experiment: NPR-B signaling studies. The class given is biochemical. The source says: Natural substrates of NEP are small and natriuretic peptides (about 2.2 to about 3.2 kDa) are the largest of the natural substrates. According to X-ray crystallographic analyses, the NEP active-site is buried deep inside a central cavity, effectively restricting the size of substrate molecules to no more than about 3 kDa (Oefner et al., J. Mol. Biol., 296: 341-349 (2000)).
The present disclosure encompasses CNP variants designed for improved NPR-B selectivity based on a homology-based structural model of the NPR-B/CNP complex. Combining the experimental and computational structure data of natriuretic peptides bound to the various receptors with the published functional data, CNP variants were generated that continue to bind to NPR-B, but can potentially have reduced affinity to the NPR-C clearance receptor. […] Accordingly, CNP variants were generated to replace the corresponding Gly8 residue with a larger residue (Ser, Val, Thr, or Asn) to disrupt the CNP binding to NPR-C without affecting its binding to NPR-B. Further, one or more mutations were introduced at the C-terminal end of CNP, encompassing Gly15 to Gly21, which is predicted to interact with receptor-specific residues, based on the detailed structural analyses of the receptor/peptide complexes. […]

A short description of data set [2]: Body weight gain, late stage rat osteoarthritis study (Example 3). The data set is classed as in vivo. The source says: A model of late stage osteoarthritis was used to evaluate the efficacy of Pro-Gly-CNP-37 in pre-developed osteoarthritis (i.e., primary osteoarthritis). As described above in Examples 1 and 2, osteoarthritis was induced in the rear legs of rats by severing the meniscus. However, in contrast to Examples 1 and 2, the lesion pathology was allowed to progress for three weeks before IA or SC treatment with Pro-Gly-CNP-37 thereby simulating pre-existing OA (i.e., primary osteoarthritis). The overall study design is outlined in Table 9. In particular, male Lewis rats underwent a unilateral medial meniscal tear surgery on Study Day 0; administration of control vehicle or Pro-Gly-CNP-37 began on Study Day 21; and animals were euthanized at scheduled time points following the last dose on Study Day 22 (Groups 1-4) or Study Day 40 (Groups 5-11). The primary endpoints evaluated included histopathological examination of chondrocyte death/cartilage degeneration in the knee.

For data set [3] the following is noted: rat, in vivo.
Experimental: (§1) As summarized in Table 6, groups of rats were treated with vehicle, Pro-Gly-CNP-37, or Gly-CNP-37. The dose route was intraarticular (IA) or subcutaneous (SC). The dose scheduling was either intraarticular administration three times per week (M, W, F) for 3 weeks (TIW×3W) or subcutaneous administration once daily for approximately 3 weeks (QD×3W). […] IA injections were given as a fixed dose whereas SC injections were given at a given dose per weight based on the most recently recorded body weight. For all rats, body weights were measured predose. For a 300-gram rat, the weekly IA dose regimen for the low, middle, and high levels was approximately equivalent to 15, 50, and 150 μg/kg/day, respectively.
(§2) The pharmacokinetic (PK) and pharmacodynamic (PD) properties of the CNP variants were evaluated. For the PK/PD analysis, timed blood collections were performed on 3 rats/group/time point as follows: 15, 30, 60, and 120 minutes post dosing for the IA groups and 5, 15, 30, 60, and 120 minutes post dosing for the SC groups. After blood collection, synovial lavage fluid (SLF, ˜50 μL/knee) was collected from each rat's left (normal) and right (operated) knee.
(§3) Individual plasma samples were analyzed for Pro-Gly-SNP-37 levels and mean concentration vs. time profiles were analyzed using a non-compartmental model for extravascular administration in Phoenix WinNonlin software.
Data set [4] can be described thus: in vivo. The note with it: rat.
Experimental: as §1, §2, §3

Bridges are numbered along the chain shown (N, C = ends). Where no end group is shown, it is not given here.

For “CFGLKLDRIGSMSGLGC (disulfide 1-17 (inferred)) [CNP-17]”, the “binding and activation of NPR-B compared with wtCNP-22” value in data set [1] was “can still bind and activate NPR-B similarly”.

As for “DLRVDTKSRAAWARLLQEHPNARKYKGANKKGLSKGCFGLKLDRIGSMSGLGC (ends and bridges not checked; cysteine pairing not given here) [CNP-53]”, the “binding and activation of NPR-B compared with wtCNP-22” value in data set [1] is “can still bind and activate NPR-B similarly”.

For `CC[C@H](C)[C@@H]1NC(=O)[C@H](CCCNC(=N)N)NC(=O)[C@H](CC(=O)O)NC(=O)[C@H](CC(C)C)NC(=O)[C@H](CCCCN)NC(=O)[C@H](CC(C)C)NC(=O)CNC(=O)[C@H](Cc2ccccc2)NC(=O)[C@@H](NC(=O)CNC(=O)[C@H](CCCCN)NC(=O)[C@H](CO)NC(=O)[C@H](CC(C)C)NC(=O)CNC(=O)[C@H](CCCCN)NC(=O)[C@H](CCCCN)NC(=O)[C@H](CC(N)=O)NC(=O)[C@H](C)NC(=O)CNC(=O)[C@H](CCCCN)NC(=O)[C@H](Cc2ccc(O)cc2)NC(=O)[C@H](CCCCN)NC(=O)[C@H](CCCNC(=N)N)NC(=O)[C@H](C)NC(=O)[C@H](CC(N)=O)NC(=O)[C@@H]2CCCN2C(=O)[C@H](Cc2c[nH]cn2)NC(=O)[C@H](CCC(=O)O)NC(=O)[C@H](CCC(N)=O)NC(=O)CNC(=O)[C@@H]2CCCN2)CSSC[C@@H](C(=O)O)NC(=O)CNC(=O)[C@H](CC(C)C)NC(=O)CNC(=O)[C@H](CO)NC(=O)[C@H](CCSC)NC(=O)[C@H](CO)NC(=O)CNC1=O` [Pro-Gly-CNP-37], the body weight gain entry in data set [2] (105 μg IA vs IA vehicle) was “significantly reduced”. Also, in data set [2] (150 μg/kg SC vs SC vehicle), the body weight gain entry is “significantly reduced”. Besides, the “body weight change (FIG. 27)” value in data set [2] (treated animals, IA and SC) is “reduced body weight change”. The exposure vs dose entry in data set [3] is “generally dose-proportional”. For the same compound, in data set [3] (sc), the “appearance in systemic circulation” value is “appeared rapidly in systemic circulation”. In addition, the CL in data set [3] (sc, 150 ug/kg) is listed as 121 mL/min. Further, in data set [4] (10.5 ug), the AUC(0-t) was 28.6 ng·h/mL, the Cmax came to 33.8 ng/mL, the Tmax was 15 min and the clearance was 5.77 mL/min. Besides, in data set [4] (10.5 ug), the half-life stood at 27 min. Also, in data set [4] (35.5 ug), the AUC(0-t) is 99 ng·h/mL, the highest level (Cmax) was 110 ng/mL, the Tmax was 15 min and the clearance turned out to be 5.36 mL/min. Also, the half-life in data set [4] (35.5 ug) was determined as 34.9 min. Moreover, in data set [4] (105 ug), the AUC(0-t) was 147 ng·h/mL, the peak level (Cmax) was 357 ng/mL, the Tmax is 15 min and the clearance stood at 9.19 mL/min. Also, the half-life in data set [4] (105 ug) turned out to be 38.1 min. Further, in data set [4] (sc, 150 ug/kg), the exposure AUC(0-t) is 16.3 ng·h/mL, the Cmax came to 28.4 ng/mL, the Tmax was 15 min and the half-life was determined as 23.8 min.
